Where two headings read alike, the source gives them in different places.

The text below walks through data of patent US7119049B2, “Oxathiinecarboxamides” (Bayer Cropscience AG, priority 2002, dated 2006).

Series [1] can be described thus: logP determination by HPLC (reversed-phase C 18), acidic range. It counts as physicochemical. The conditions noted are these: pH 2.3, HPLC reversed-phase C 18, 43° C., 0.1% aqueous phosphoric acid/acetonitrile. The protocol: The logP values given in the Preparation Examples were determined in accordance with EEC Directive 79/831 Annex V.A8 by HPLC (High Performance Liquid Chromatography) using a reversed-phase column (C 18). Temperature: 43° C.
Mobile phases for the determination in the acidic range: 0.1% aqueous phosphoric acid, acetonitrile; linear gradients from 10% acetonitrile to 90% acetonitrile.
Calibration was carried out using unbranched alkan-2-ones (having 3 to 16 carbon atoms) with known logP values (determination of the logP values by the retention times using linear interpolation between two successive alkanones).

Series [2] has as its system Podosphaera leucotricha. Nature of the series: Podosphaera Test (Apple)/protective. Format: in vivo. The conditions noted are these: 240 h, read-out: Efficacy in %. As for the experimental part: Podosphaera Test (Apple)/Protective
• Solvents: 24.5 Parts by weight of acetone 24.5 Parts by weight of dimethylacetamide • Emulsifier: 1.0 Part by weight of alkylaryl polyglycol ether
(§1) To produce a suitable preparation of active compound, 1 part by weight of active compound is mixed with the stated amount of solvent and emulsifier, and the concentrate is diluted with water to the desired concentration.
To test for protective activity, young plants are sprayed with the preparation of active compound at the stated application rate. After the spray coating has dried on, the plants are inoculated with an aqueous spore suspension of the apple mildew pathogen Podosphaera leucotricha. The plants are then placed in a greenhouse at about 23° C. and a relative atmospheric humidity of about 70%.
(§2) Evaluation is carried out 10 days after the inoculation. 0% means an efficacy which corresponds to that of the control, whereas an efficacy of 100% means that no infection is observed.

Series [3] relates to Venturia inaequalis. Nature of the series: Venturia Test (Apple)/protective. It counts as in vivo. The conditions noted are these: 240 h, read-out: Efficacy in %. The protocol: (§3) To produce a suitable preparation of active compound, 1 part by weight of active compound is mixed with the stated amounts of solvent and emulsifier, and the concentrate is diluted with water to the desired concentration.
To test for protective activity, young plants are sprayed with the preparation of active compound at the stated application rate. After the spray coating has dried on, the plants are inoculated with an aqueous conidia suspension of the apple scab pathogen Venturia inaequalis and then remain in an incubation cabin at about 20° C. and 100% relative atmospheric humidity for 1 day.
The plants are then placed in a greenhouse at about 21° C. and a relative atmospheric humidity of about 90%.
as §2

For series [4], the system named is Alternaria solani. Nature of the series: Alternaria Test (Tomato)/protective. The conditions noted are these: 48 h, read-out: Efficacy in %. It counts as in vivo. As for the experimental part:
as §3
To test for protective activity, young tomato plants are sprayed with the preparation of active compound at the stated application rate. 1 day after the treatment, the plants are inoculated with an aqueous spore suspension of Alternaria solani. The plants are then placed in an incubation cabin at about 20° C. and 100% relative atmospheric humidity.
Evaluation is carried out 2 days after the inoculation. 0% means an efficacy which corresponds to that of the control, whereas an efficacy of 100% means that no infection is observed.

Series [5] has as its system Pyrenophora teres. Nature of the series: Pyrenophora teres Test (Barley)/protective. It counts as in vivo. To be noted: protective, 500 g/ha, evaluation 7 days after inoculation. The protocol:
as §1
To test for protective activity, young plants are sprayed with the preparation of active compound at the stated application rate. After the spray coating has dried on, the plants are sprayed with a conidia suspension of Pyrenophora teres. The plants remain in an incubation cabin at 20° C. and 100% relative atmospheric humidity for 48 hours.
The plants are then placed in a greenhouse at temperature of about 20° C. and a relative atmospheric humidity of about 80%.
Evaluation is carried out 7 days after the inoculation. 0% means an efficacy which corresponds to that of the control, whereas an efficacy of 100% means that no infection is observed.

Series [6] deals with Puccinia recondita. Nature of the series: Puccinia Test (Wheat)/protective. The conditions noted are these: protective, 500 g/ha, evaluation 10 days after inoculation. Format: in vivo. The protocol: as §3
To test for protective activity, young plants are sprayed with the preparation of active compound at the stated application rate. After the spray coating has dried on, the plants are sprayed with a conidia suspension of Puccinia recondita. The plants remain in an incubation cabin at 20° C. and 100% relative atmospheric humidity for 48 hours.
The plants are then placed in a greenhouse at a temperature of about 20° C. and a relative atmospheric humidity of about 80% to promote the development of rust pustules.
as §2

Regarding `CC1=C(C(=O)Nc2ccccc2-c2ccc(Cl)cc2F)SCCO1` [Example 1, N-(4′-chloro-2′-fluoro-1,1′-biphenyl-2-yl)-2-methyl-5,6-dihydro-1,4-oxathiine-3-carboxamide], the chromatographic logP in series [1] (reversed-phase C18 HPLC column) is 3.61. Besides, the pest or weed control at 100 g/ha in series [2] (apple, protective, application rate 100 g/ha, evaluation 10 days after inoculation) amounted to 99%; in series [3] (apple, protective, 100 g/ha, evaluation 10 days after inoculation), 100%; in series [4] (tomato, protective, 100 g/ha, evaluation 2 days after inoculation), 94%.

Turning to `CC1=C(C(=O)Nc2ccccc2-c2ccc(C#N)cc2)SCCO1` [Example 19], the chromatographic logP in series [1] was 2.74. Moreover, the Efficacy in % in series [5] turned out to be 93%.

Regarding `CC1=C(C(=O)Nc2ccccc2-c2ccc(Cl)cc2C)SCCO1` [Example 8], in series [1], the chromatographic logP was 4.26. The pest or weed control at 100 g/ha in series [2] was determined as 96%; in series [3] it was 99%; in series [4], 94%.

For `CC1=C(C(=O)Nc2ccccc2-c2ccc(Cl)cc2)SCCO1` [Example 17], the chromatographic logP in series [1] amounted to 3.69. Further, the pest or weed control at 100 g/ha in series [3] and in series [4] was 93% each time. The molecule also came in with an Efficacy in % in series [5] of 100%.

`CC1=C(C(=O)Nc2c(F)cccc2-c2ccc(Cl)c(Cl)c2)SCCO1` [Example 16] had a chromatographic logP in series [1] of 3.53. Also, the pest or weed control at 100 g/ha in series [2] is 90%; in series [3] it was 100%; in series [4], 95%.

In the case of `CC1=C(C(=O)Nc2ccccc2-c2ccc(Cl)c(C)c2)SCCO1` [Example 15], the chromatographic logP in series [1] was 4.17. Further, the pest or weed control at 100 g/ha in series [2] is 98%; in series [3], 100%; in series [4], 96%.

In series [1], `CC1=C(C(=O)Nc2ccccc2-c2ccc(Cl)c(Cl)c2)SCCO1` [Example 6] returned a chromatographic logP of 4.02. Moreover, the pest or weed control at 100 g/ha in series [2], in series [3] and in series [4] was 100% each time. The Efficacy in % in series [6] worked out at 100%.

The molecule `CC1=C(C(=O)Nc2ccccc2-c2ccc(Cl)c(F)c2)SCCO1` [Example 9] gave a chromatographic logP in series [1] of 3.67. In addition, the pest or weed control at 100 g/ha in series [2], in series [3] and in series [4] was 100% each time. Also, the Efficacy in % in series [5] is on record as 95%; in series [6] it was 100%.

As for `CC1=C(C(=O)Nc2ccccc2-c2ccc(F)c(F)c2)SCCO1` [Example 12], the chromatographic logP in series [1] amounted to 3.38. In addition, the pest or weed control at 100 g/ha was found to be 100% in series [3] and 95% in series [4].

`CC1=C(C(=O)Nc2ccccc2-c2ccc(Cl)c(C(F)(F)F)c2)SCCO1` [Example 13]: in series [1], the chromatographic logP stood at 4.03. The values for the pest or weed control at 100 g/ha in series [3] and in series [4] were 99% and 94%, respectively.

On to `CC1=C(C(=O)Nc2ccccc2-c2ccc(Cl)cc2Cl)SCCO1` [Example 7], for which the values for the pest or weed control at 100 g/ha in series [2], in series [3] and in series [4] were 100%, 100% and 98%, respectively.

In the case of `CC1=C(C(=O)Nc2ccccc2-c2ccc(F)c(Cl)c2)SCCO1` [Example 10], in series [1], the chromatographic logP was 3.7. In addition, the pest or weed control at 100 g/ha in series [2] came out at 93%; in series [3] it was 100%; in series [4], 94%.

A word on the chromatographic logP: it is lipophilicity estimated from chromatographic retention. High values mean higher lipophilicity, low ones lower lipophilicity.
